Data reported in patent US8574563B2 (Bristol-Myers Squibb Company, priority 2006, dated 2013).

Test system: HCV 1b-377-neo replicon cells
Assay: HCV replicon assay, HCV 1b-377-neo replicon cells (1b FRET)
Assay type: cell-based, Hepatitis C virus genotype 1b
Settings: Hepatitis C virus, HCV 1b-377-neo replicon cells; HCV 1b genotype; read-out: EC50 range against HCV 1b (Table 2, Range)
Method in brief: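 FRET-based replicon assay in HCV 1b-377-neo cells, including a comparison line carrying the NS5A Y2065H mutation that confers resistance to a reference compound.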

Row | Compound | EC50 [nM]
1 | COC(=O)N[C@@H](C)C(=O)N1CCC[C@H]1c1ncc(-c2ccc(-c3ccc(-c4cnc([C@@H]5CCCN5C(=O)[C@@H](Nc5cccnc5)C(C)C)[nH]4)cc3)cc2)[nH]1 [cj-20a, methyl ((1S)-1-methyl-2-oxo-2-((2S)-2-(5-(4′-(2-((2S)-1-(N-3-pyridinyl-L-valyl)-2-pyrrolidinyl)-1H-imidazol-5-yl)-4-biphenylyl)-1H-imidazol-2-yl)-1-pyrrolidinyl)ethyl)carbamate] | 0.001 to 0.999
2 | COC(=O)N[C@H](C(=O)N1CCC[C@H]1c1ncc(-c2ccc(-c3ccc(-c4cnc([C@@H]5CCCN5C(=O)[C@@H](Nc5cccnc5)C(C)C)[nH]4)cc3)cc2)[nH]1)[C@@H](C)OC [cj-20b, methyl ((1S,2R)-2-methoxy-1-(((2S)-2-(5-(4′-(2-((2S)-1-(N-3-pyridinyl-L-valyl)-2-pyrrolidinyl)-1H-imidazol-5-yl)-4-biphenylyl)-1H-imidazol-2-yl)-1-pyrrolidinyl)carbonyl)propyl)carbamate] | 0.001 to 0.999
3 | CCN(CC)[C@@H](C(=O)N1CCC[C@H]1c1ncc(-c2ccc(-c3ccc(-c4cnc([C@@H]5CCCN5C(=O)[C@@H](Nc5cccnc5)C(C)C)[nH]4)cc3)cc2)[nH]1)c1ccccc1 [cj-20c, N-((1S)-1-(((2S)-2-(5-(4′-(2-((2S)-1-((2R)-2-(diethylamino)-2-phenylacetyl)-2-pyrrolidinyl)-1H-imidazol-5-yl)-4-biphenylyl)-1H-imidazol-2-yl)-1-pyrrolidinyl)carbonyl)-2-methylpropyl)-3-pyridinamine] | 0.001 to 0.999
4 | COC(=O)N[C@H](C(=O)N1CCC[C@H]1c1ncc(-c2ccc(-c3ccc(-c4cnc([C@@H]5CCCN5C(=O)[C@@H](Nc5cncnc5)C(C)C)[nH]4)cc3)cc2)[nH]1)C(C)C [cj-20d, methyl ((1S)-2-methyl-1-(((2S)-2-(5-(4′-(2-((2S)-1-(N-5-pyrimidinyl-L-valyl)-2-pyrrolidinyl)-1H-imidazol-5-yl)-4-biphenylyl)-1H-imidazol-2-yl)-1-pyrrolidinyl)carbonyl)propyl)carbamate] | 0.001 to 0.999
5 | CCN(CC)[C@@H](C(=O)N1CCC[C@H]1c1ncc(-c2ccc(-c3ccc(-c4cnc([C@@H]5CCCN5C(=O)[C@H](Cc5c[nH]nn5)NC(=O)OC)[nH]4)cc3)cc2)[nH]1)c1ccccc1 [cj-32, methyl ((1S)-2-((2S)-2-(5-(4′-(2-((2S)-1-((2R)-2-(diethylamino)-2-phenylacetyl)-2-pyrrolidinyl)-1H-imidazol-5-yl)-4-biphenylyl)-1H-imidazol-2-yl)-1-pyrrolidinyl)-2-oxo-1-(1H-1,2,3-triazol-4-ylmethyl)ethyl)carbamate] | 0.001 to 0.999
6 | COC(=O)N[C@@H](C)C(=O)N1CCC[C@H]1c1ncc(-c2ccc(-c3ccc(-c4cnc([C@@H]5CCCN5C(=O)[C@H](Cc5c[nH]nn5)NC(=O)OC)[nH]4)cc3)cc2)[nH]1 [cj-33, methyl ((1S)-2-((2S)-2-(5-(4′-(2-((2S)-1-(N-(methoxycarbonyl)-L-alanyl)-2-pyrrolidinyl)-1H-imidazol-5-yl)-4-biphenylyl)-1H-imidazol-2-yl)-1-pyrrolidinyl)-2-oxo-1-(1H-1,2,3-triazol-4-ylmethyl)ethyl)carbamate] | 0.001 to 0.999
7 | COC(=O)N[C@@H](Cc1c[nH]nn1)C(=O)N1CCC[C@H]1c1ncc(-c2ccc(-c3ccc(-c4cnc([C@@H]5CCCN5C(=O)[C@@H](NC(=O)OC)C(C)C)[nH]4)cc3)cc2)[nH]1 [cj-34, methyl ((1S)-1-(((2S)-2-(5-(4′-(2-((2S)-1-((2S)-2-((methoxycarbonyl)amino)-3-(1H-1,2,3-triazol-4-yl)propanoyl)-2-pyrrolidinyl)-1H-imidazol-5-yl)-4-biphenylyl)-1H-imidazol-2-yl)-1-pyrrolidinyl)carbonyl)-2-methylpropyl)carbamate] | 0.001 to 0.999
8 | COC(=O)N[C@@H](Cc1c[nH]nn1)C(=O)N1CCC[C@H]1c1ncc(-c2ccc(-c3ccc(-c4cnc([C@@H]5CCCN5C(=O)[C@@H](NC(=O)OC)[C@@H](C)OC)[nH]4)cc3)cc2)[nH]1 [cj-35, methyl ((1S)-2-((2S)-2-(5-(4′-(2-((2S)-1-((2S,3R)-3-methoxy-2-((methoxycarbonyl)amino)butanoyl)-2-pyrrolidinyl)-1H-imidazol-5-yl)-4-biphenylyl)-1H-imidazol-2-yl)-1-pyrrolidinyl)-2-oxo-1-(1H-1,2,3-triazol-4-ylmethyl)ethyl)carbamate] | 1 to 99
9 | CCN(CC)[C@@H](C(=O)N1CCC[C@H]1c1ncc(-c2ccc(-c3ccc(-c4cnc([C@@H]5CCCN5C(=O)[C@H](Cn5cccn5)NC(=O)OC)[nH]4)cc3)cc2)[nH]1)c1ccccc1 [cj-36, methyl ((1S)-2-((2S)-2-(5-(4′-(2-((2S)-1-((2R)-2-(diethylamino)-2-phenylacetyl)-2-pyrrolidinyl)-1H-imidazol-5-yl)-4-biphenylyl)-1H-imidazol-2-yl)-1-pyrrolidinyl)-2-oxo-1-(1H-pyrazol-1-ylmethyl)ethyl)carbamate] | 0.001 to 0.999
10 | COC(=O)N[C@@H](C)C(=O)N1CCC[C@H]1c1ncc(-c2ccc(-c3ccc(-c4cnc([C@@H]5CCCN5C(=O)[C@H](Cn5cccn5)NC(=O)OC)[nH]4)cc3)cc2)[nH]1 [cj-37, methyl ((1S)-2-((2S)-2-(5-(4′-(2-((2S)-1-(N-(methoxycarbonyl)-L-alanyl)-2-pyrrolidinyl)-1H-imidazol-5-yl)-4-biphenylyl)-1H-imidazol-2-yl)-1-pyrrolidinyl)-2-oxo-1-(1H-pyrazol-1-ylmethyl)ethyl)carbamate] | 0.001 to 0.999
11 | COC(=O)N[C@@H](Cn1cccn1)C(=O)N1CCC[C@H]1c1ncc(-c2ccc(-c3ccc(-c4cnc([C@@H]5CCCN5C(=O)[C@@H](NC(=O)OC)C(C)C)[nH]4)cc3)cc2)[nH]1 [cj-38, methyl ((1S)-1-(((2S)-2-(5-(4′-(2-((2S)-1-((2S)-2-((methoxycarbonyl)amino)-3-(1H-pyrazol-1-yl)propanoyl)-2-pyrrolidinyl)-1H-imidazol-5-yl)-4-biphenylyl)-1H-imidazol-2-yl)-1-pyrrolidinyl)carbonyl)-2-methylpropyl)carbamate] | 0.001 to 0.999
12 | COC(=O)N[C@@H](Cn1cccn1)C(=O)N1CCC[C@H]1c1ncc(-c2ccc(-c3ccc(-c4cnc([C@@H]5CCCN5C(=O)[C@@H](NC(=O)OC)[C@@H](C)OC)[nH]4)cc3)cc2)[nH]1 [cj-39, methyl ((1S)-2-((2S)-2-(5-(4′-(2-((2S)-1-(N-(methoxycarbonyl)-O-methyl-L-threonyl)-2-pyrrolidinyl)-1H-imidazol-5-yl)-4-biphenylyl)-1H-imidazol-2-yl)-1-pyrrolidinyl)-2-oxo-1-(1H-pyrazol-1-ylmethyl)ethyl)carbamate] | 0.001 to 0.999
13 | CCN(CC)[C@@H](C(=O)N1CCC[C@H]1c1ncc(-c2ccc(-c3ccc(-c4cnc([C@@H]5CCCN5C(=O)[C@H](Cc5cn(C)cn5)NC(=O)OC)[nH]4)cc3)cc2)[nH]1)c1ccccc1 [cj-40, methyl ((1S)-2-((2S)-2-(5-(4′-(2-((2S)-1-((2R)-2-(diethylamino)-2-phenylacetyl)-2-pyrrolidinyl)-1H-imidazol-5-yl)-4-biphenylyl)-1H-imidazol-2-yl)-1-pyrrolidinyl)-1-((1-methyl-1H-imidazol-4-yl)methyl)-2-oxoethyl)carbamate] | 0.001 to 0.999
14 | COC(=O)N[C@@H](C)C(=O)N1CCC[C@H]1c1ncc(-c2ccc(-c3ccc(-c4cnc([C@@H]5CCCN5C(=O)[C@H](Cc5cn(C)cn5)NC(=O)OC)[nH]4)cc3)cc2)[nH]1 [cj-41, methyl ((1S)-2-((2S)-2-(5-(4′-(2-((2S)-1-(N-(methoxycarbonyl)-L-alanyl)-2-pyrrolidinyl)-1H-imidazol-5-yl)-4-biphenylyl)-1H-imidazol-2-yl)-1-pyrrolidinyl)-1-((1-methyl-1H-imidazol-4-yl)methyl)-2-oxoethyl)carbamate] | 0.001 to 0.999
15 | COC(=O)N[C@@H](Cc1cn(C)cn1)C(=O)N1CCC[C@H]1c1ncc(-c2ccc(-c3ccc(-c4cnc([C@@H]5CCCN5C(=O)[C@@H](NC(=O)OC)C(C)C)[nH]4)cc3)cc2)[nH]1 [cj-42, methyl ((1S)-1-(((2S)-2-(5-(4′-(2-((2S)-1-((2S)-2-((methoxycarbonyl)amino)-3-(1-methyl-1H-imidazol-4-yl)propanoyl)-2-pyrrolidinyl)-1H-imidazol-5-yl)-4-biphenylyl)-1H-imidazol-2-yl)-1-pyrrolidinyl)carbonyl)-2-methylpropyl)carbamate] | 0.001 to 0.999
16 | COC(=O)N[C@@H](Cc1cn(C)cn1)C(=O)N1CCC[C@H]1c1ncc(-c2ccc(-c3ccc(-c4cnc([C@@H]5CCCN5C(=O)[C@@H](NC(=O)OC)[C@@H](C)OC)[nH]4)cc3)cc2)[nH]1 [cj-43, methyl ((1S)-2-((2S)-2-(5-(4′-(2-((2S)-1-((2S,3R)-3-methoxy-2-((methoxycarbonyl)amino)butanoyl)-2-pyrrolidinyl)-1H-imidazol-5-yl)-4-biphenylyl)-1H-imidazol-2-yl)-1-pyrrolidinyl)-1-((1-methyl-1H-imidazol-4-yl)methyl)-2-oxoethyl)carbamate] | 0.001 to 0.999
17 | CCN(CC)[C@@H](C(=O)N1CCC[C@H]1c1ncc(-c2ccc(-c3ccc(-c4cnc([C@@H]5CCCN5C(=O)[C@H](Cc5cncn5C)NC(=O)OC)[nH]4)cc3)cc2)[nH]1)c1ccccc1 [cj-44, methyl ((1S)-2-((2S)-2-(5-(4′-(2-((2S)-1-((2R)-2-(diethylamino)-2-phenylacetyl)-2-pyrrolidinyl)-1H-imidazol-5-yl)-4-biphenylyl)-1H-imidazol-2-yl)-1-pyrrolidinyl)-1-((1-methyl-1H-imidazol-5-yl)methyl)-2-oxoethyl)carbamate] | 0.001 to 0.999
18 | COC(=O)N[C@@H](C)C(=O)N1CCC[C@H]1c1ncc(-c2ccc(-c3ccc(-c4cnc([C@@H]5CCCN5C(=O)[C@H](Cc5cncn5C)NC(=O)OC)[nH]4)cc3)cc2)[nH]1 [cj-45, methyl ((1S)-2-((2S)-2-(5-(4′-(2-((2S)-1-(N-(methoxycarbonyl)-L-alanyl)-2-pyrrolidinyl)-1H-imidazol-5-yl)-4-biphenylyl)-1H-imidazol-2-yl)-1-pyrrolidinyl)-1-((1-methyl-1H-imidazol-5-yl)methyl)-2-oxoethyl)carbamate] | 0.001 to 0.999
